These results are taken from PubChem BioAssay (NCI).

Test systems include NCI-H460 lung; SW-620 colon; IGROV1 ovarian; K-562 leukemia; HOP-92 NSCLC; HCT-15 colon; MOLT-4 leukemia; T-47D breast; MDA-N; M14 melanoma.
Holding throughout (experiment): NCI-60 cell line screen, 48 h

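Method: 48-hour compound exposure of cells in 96-well plates, five concentrations, linear interpolation of endpoints. Here, GI50 denotes the concentration required for 50% inhibition of growth. TGI marks complete inhibition of growth.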

For the compound `Cc1[nH]c(=O)[nH]c(=O)c1/C=C/C(=O)NC(CO)CS(=O)Cc1ccccc1` (stereo unspecified), the TGI in the assay on NCI-H460 lung, in the assay with SW-620 colon, in the assay with IGROV1 ovarian, with K-562 leukemia, in the assay with HOP-92 NSCLC and in the assay with HCT-15 colon was more than 300 µM throughout. The compound further had a TGI with MOLT-4 leukemia of more than 300 µM.

For `CCOC(=O)C(Cc1cn(C(C)=O)c2ccccc12)P(=O)(OCC)OCC` (stereo unspecified), the TGI with NCI-H460 lung, in the assay on T-47D breast, in the assay with SW-620 colon, in the assay with IGROV1 ovarian, in the assay on K-562 leukemia and in the assay with MDA-N was more than 100 µM each time. Further, the TGI in the assay with M14 melanoma, in the assay with HOP-92 NSCLC, in the assay with HCT-15 colon and in the assay on MOLT-4 leukemia was more than 100 µM each time.

On to `O=C(Nc1ccc(-n2cc(-c3ccncc3)c(-c3ccc(O)c(Cl)c3)n2)cc1)Nc1ccc(Cl)c(C(F)(F)F)c1`, for which the GI50 in the assay with NCI-H460 lung is 3.33 µM; in the assay with T-47D breast it was 8.61 µM; with SW-620 colon it was 4.55 µM; in the assay with IGROV1 ovarian, 4.42 µM; in the assay on K-562 leukemia it was 3.89 µM; in the assay on M14 melanoma, 2.48 µM. The GI50 was 1.82 µM with HOP-92 NSCLC, 2.95 µM in the assay with HCT-15 colon and 3.18 µM in the assay with MOLT-4 leukemia. Also, the TGI with NCI-H460 lung is 11.4 µM; in the assay on T-47D breast, 64.1 µM; in the assay on SW-620 colon it was 20 µM; with IGROV1 ovarian it was 30.3 µM; in the assay with K-562 leukemia it was 49.4 µM; in the assay with M14 melanoma it was 6.33 µM. The TGI in the assay with HOP-92 NSCLC was found to be 5 µM; with HCT-15 colon, 11.8 µM; in the assay with MOLT-4 leukemia, 16.4 µM.

As to `O=C(O)CCc1nc2ccccc2[nH]1`, the TGI in the assay with NCI-H460 lung, in the assay with T-47D breast, with SW-620 colon, with IGROV1 ovarian, with K-562 leukemia and in the assay on MDA-N was more than 100 µM each time. The TGI with M14 melanoma, in the assay on HOP-92 NSCLC, with HCT-15 colon and with MOLT-4 leukemia was more than 100 µM each time.

As to `COc1ccc(OC)c(C2CCc3c(cnc4nc(N)nc(N)c34)C2)c1` (stereo unspecified), the TGI with NCI-H460 lung is 21.6 µM; with T-47D breast, 39.8 µM; in the assay on SW-620 colon, 37.2 µM; in the assay on IGROV1 ovarian it was 17.5 µM; with K-562 leukemia, 16.1 µM; in the assay with MDA-N it was 17.2 µM. The TGI in the assay on M14 melanoma worked out at 17.3 µM; in the assay with HOP-92 NSCLC, 26.3 µM; in the assay with HCT-15 colon it was 28.4 µM; in the assay with MOLT-4 leukemia, 22 µM.

Turning to `Cn1ccc(C(=O)NCCN(CCNC(=O)c2ccn(C)c(=O)c2O)CCNC(=O)c2ccn(C)c(=O)c2O)c(O)c1=O`, the TGI in the assay on NCI-H460 lung, in the assay with T-47D breast, in the assay on SW-620 colon, with IGROV1 ovarian, with K-562 leukemia and in the assay on MDA-N was more than 100 µM each time. In addition, the TGI in the assay with M14 melanoma, in the assay on HOP-92 NSCLC and with HCT-15 colon was more than 100 µM throughout.

On to `CC(=O)O[C@@H]1C(=O)N(c2ccccc2)[C@@H]1c1cc2ccccc2c2ccccc12`, for which the TGI was more than 100 µM in the assay on NCI-H460 lung; 85.7 µM in the assay with T-47D breast; 61.9 µM in the assay with IGROV1 ovarian; more than 100 µM with K-562 leukemia; more than 100 µM in the assay on MDA-N; more than 100 µM with M14 melanoma. Further, the values for the TGI with HOP-92 NSCLC, with HCT-15 colon and with MOLT-4 leukemia were more than 100 µM, more than 100 µM and 56 µM, respectively.

Take `COc1ccc(C(O)(c2ccccc2)c2nccc3ccccc23)cc1` (stereo unspecified): the TGI with NCI-H460 lung was 38.9 µM; with T-47D breast it was more than 100 µM; in the assay with IGROV1 ovarian it was more than 100 µM; in the assay with K-562 leukemia it was more than 100 µM; with MDA-N, more than 100 µM; in the assay with M14 melanoma, 8.34 µM. Also, the TGI with HCT-15 colon is more than 100 µM; in the assay with MOLT-4 leukemia, 11.9 µM.

Consider `CC(C)C(=O)CC(c1ccc(Cl)cc1)N1N=C(C(C)C)CC1c1ccc(Cl)cc1` (stereo unspecified), for which the TGI in the assay on NCI-H460 lung, in the assay on SW-620 colon, in the assay with IGROV1 ovarian, in the assay on K-562 leukemia, in the assay on M14 melanoma and in the assay with HOP-92 NSCLC was more than 100 µM in each case. The compound also showed a TGI with MOLT-4 leukemia of 83.4 µM. The GI50 with M14 melanoma is 54.5 µM; in the assay on MOLT-4 leukemia, 22.4 µM.

Take `C/C(=N\NC(=S)N(C)C)c1nc2ncccc2[nH]1`: the TGI in the assay on NCI-H460 lung was more than 100 µM; in the assay with T-47D breast, 14.7 µM; in the assay on SW-620 colon, more than 100 µM; with IGROV1 ovarian, 70 µM; with K-562 leukemia, more than 100 µM; in the assay on MDA-N it was more than 100 µM. For the same compound, the TGI with HOP-92 NSCLC is 0.928 µM; in the assay with HCT-15 colon it was more than 100 µM; with MOLT-4 leukemia, 9.86 µM.

As for `OCCCNc1ncnc2[nH]ncc12`, the TGI with NCI-H460 lung, with T-47D breast, in the assay with SW-620 colon, in the assay with IGROV1 ovarian, in the assay on K-562 leukemia and with MDA-N was more than 100 µM in each case. Further, the TGI with M14 melanoma, with HOP-92 NSCLC, in the assay with HCT-15 colon and with MOLT-4 leukemia was more than 100 µM each time.

As for `C/C(=N\NC(=S)NCCCCNC(=S)N/N=C(\C)c1ccccn1)c1ccccc1`, the TGI in the assay with NCI-H460 lung was 4.71 µM; in the assay on SW-620 colon, more than 100 µM; in the assay on IGROV1 ovarian, more than 28.8 µM; with K-562 leukemia it was more than 100 µM; in the assay on MDA-N, more than 100 µM; in the assay with HOP-92 NSCLC, more than 57.3 µM. Also, the TGI was more than 100 µM in the assay on HCT-15 colon and more than 30.5 µM in the assay on MOLT-4 leukemia.

With `COc1cc(/C=N\c2nc(-c3ccc(NS(=O)(=O)c4ccc(Cl)c(OC)c4)cc3)cs2)ccc1O`, the TGI was 59.1 µM in the assay with T-47D breast; more than 100 µM in the assay with SW-620 colon; more than 100 µM in the assay on IGROV1 ovarian; more than 100 µM in the assay with K-562 leukemia; more than 100 µM in the assay on MDA-N; more than 100 µM in the assay on M14 melanoma. In addition, the TGI with HOP-92 NSCLC, in the assay with HCT-15 colon and in the assay with MOLT-4 leukemia was more than 100 µM in each case.

As for `COc1ccc(-c2cc(-c3ccc(O)cc3O)c(C#N)c(=O)[nH]2)cc1`, the TGI is 59.7 µM in the assay on NCI-H460 lung; more than 100 µM in the assay on T-47D breast; 50.3 µM in the assay with SW-620 colon; 77 µM with K-562 leukemia; 32.7 µM in the assay on MDA-N; 35.4 µM in the assay on M14 melanoma. Further, the TGI was 31 µM in the assay on HOP-92 NSCLC, more than 100 µM in the assay on HCT-15 colon and 55.1 µM with MOLT-4 leukemia.

As to `CCOC(=O)CCSc1nc2ccc(I)cc2c(=O)n1Cc1ccccc1`, the TGI is more than 100 µM in the assay with NCI-H460 lung; more than 100 µM in the assay with T-47D breast; more than 100 µM in the assay with SW-620 colon; more than 100 µM in the assay on IGROV1 ovarian; more than 100 µM in the assay on K-562 leukemia; more than 86.7 µM with MDA-N. Besides, the figures for the TGI with M14 melanoma, in the assay on HOP-92 NSCLC and in the assay on HCT-15 colon were more than 100 µM, 53.5 µM and more than 77.7 µM, respectively.

`CCCn1cc2c(SC)nc(SC)nc2n1`: the TGI in the assay with NCI-H460 lung, in the assay on SW-620 colon, in the assay on IGROV1 ovarian, with K-562 leukemia, in the assay with M14 melanoma and in the assay on HOP-92 NSCLC was more than 100 µM each time. Further, the TGI in the assay with HCT-15 colon and with MOLT-4 leukemia was more than 100 µM in each case.

For the compound `O=C(O)c1cc(=O)c2c(OCC(O)COc3cccc4oc(C(=O)O)cc(=O)c34)cccc2o1`, the TGI in the assay on NCI-H460 lung is more than 100 µM; in the assay with T-47D breast, more than 100 µM; with SW-620 colon, more than 100 µM; in the assay on IGROV1 ovarian, more than 94.9 µM; with K-562 leukemia it was more than 100 µM; in the assay with MDA-N, more than 100 µM. For the same compound, the TGI was more than 100 µM in the assay with M14 melanoma, more than 93.8 µM with HOP-92 NSCLC, more than 100 µM with HCT-15 colon and more than 100 µM with MOLT-4 leukemia.

As for `c1ccc(C(NC2=NCCO2)c2ccccc2)cc1`, the TGI with NCI-H460 lung, with T-47D breast, in the assay with SW-620 colon, with IGROV1 ovarian, with K-562 leukemia and in the assay with MDA-N was more than 10 µM throughout. The TGI in the assay with M14 melanoma, in the assay with HCT-15 colon and with MOLT-4 leukemia was more than 10 µM each time.
